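Tested at 5 concentrations; 48 h exposure; 96-well plates; endpoints linearly interpolated, else capped at highest concentration. Here, GI50 denotes the concentration required for 50% inhibition of growth. The concentration for full growth arrest is given as TGI.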
Tests used:
Assay in all cases: NCI tumour cell line growth inhibition, 48 h
[1] = test system: RPMI-8226 leukemia
[2] = test system: M14 melanoma
[3] = test system: OVCAR-3 ovarian
[4] = test system: A549 NSCLC
[5] = test system: SF-268 CNS
[6] = test system: SK-MEL-28 melanoma
[7] = test system: HCT-116 colon
[8] = test system: SW-620 colon
[9] = test system: SK-MEL-5 melanoma
[10] = test system: RXF 393 renal
[11] = test system: MDA-MB-231 breast
[12] = test system: LOX IMVI melanoma
[13] = test system: SF-295 CNS
[14] = test system: COLO 205 colon
[15] = test system: MDA-MB-435
[16] = test system: NCI-H23 lung
[17] = test system: CAKI-1 renal
[18] = test system: A498 renal
[19] = test system: MCF7 breast
[20] = test system: HCT-15 colon
[21] = test system: MDA-MB-468 breast
[22] = test system: HT29 colon
[23] = test system: HOP-62 NSCLC
[24] = test system: BT-549 breast
[25] = test system: K-562 leukemia
[26] = test system: OVCAR-8 ovarian
[27] = test system: TK-10 renal
[28] = test system: PC-3 prostate
[29] = test system: SR leukemia
[30] = test system: U251 CNS
[31] = test system: SNB-75 CNS
[32] = test system: SF-539 CNS
[33] = test system: HOP-92 NSCLC
[34] = test system: DU-145 prostate
[35] = test system: NCI-H522 lung
[36] = test system: IGROV1 ovarian
[37] = test system: SK-OV-3 ovarian
[38] = test system: CCRF-CEM leukemia
[39] = test system: SNB-19 CNS
[40] = test system: ACHN renal
[41] = test system: MALME-3M melanoma
[42] = test system: T-47D breast
[43] = test system: OVCAR-5 ovarian
[44] = test system: SN12C renal
[45] = test system: KM12 colon
[46] = test system: HS 578T breast
[47] = test system: UACC-257 melanoma
[48] = test system: 786-0 renal
[49] = test system: HL-60(TB) leukemia
[50] = test system: NCI-H460 lung
[51] = test system: UACC-62 melanoma
[52] = test system: UO-31 renal
[53] = test system: HCC-2998 colon
[54] = test system: EKVX NSCLC
[55] = test system: NCI-H226 lung
[56] = test system: SK-MEL-2 melanoma
[57] = test system: OVCAR-4 ovarian
[58] = test system: MOLT-4 leukemia
[59] = test system: NCI/ADR-RES ovarian

`O=C(c1ccc(O)cc1)C1[C@H](c2ccc(Br)cc2)[C@@H](c2ccccc2)NC12C(=O)Nc1ccccc12` (stereo partly specified) gave a GI50 [1] of 7.97 µM, a TGI [1] of 25.2 µM and a GI50 [2] of 5.63 µM. It also gave a TGI [2] of 11.3 µM, a GI50 [3] of 6.51 µM and a TGI [3] of 12 µM. It also gave a GI50 [4] of 4.84 µM, a TGI [4] of 10.2 µM and a GI50 [5] of 5.73 µM. The TGI [5] was 12.5 µM, the GI50 [6] was 6.21 µM and the TGI [6] was 11.5 µM. It also gave a GI50 [7] of 5.51 µM, a TGI [7] of 10.8 µM and a GI50 [8] of 6.63 µM. It also gave a TGI [8] of 12.9 µM, a GI50 [9] of 6.6 µM and a TGI [9] of 12.1 µM. The GI50 [10] was 5.29 µM, the TGI [10] was 10.5 µM and the GI50 [11] was 4.93 µM. The TGI [11] was 9.87 µM, the GI50 [12] was 4.93 µM and the TGI [12] was 10.6 µM. For the same compound, the GI50 [13] was 5.93 µM, the TGI [13] was 11.3 µM and the GI50 [14] was 6.88 µM. The TGI [14] was 14.1 µM, the GI50 [15] was 6.53 µM and the TGI [15] was 12.3 µM. It also gave a GI50 [16] of 6.38 µM, a TGI [16] of 12.6 µM and a GI50 [17] of 4.67 µM. For the same compound, the TGI [17] was 9.8 µM, the GI50 [18] was 5.83 µM and the TGI [18] was 11.3 µM. The GI50 [19] was 6.41 µM, the TGI [19] was 15.4 µM and the GI50 [20] was 6.17 µM. For the same compound, the TGI [20] was 13 µM, the GI50 [21] was 6.1 µM and the TGI [21] was 12.2 µM. The GI50 [22] was 5.87 µM, the TGI [22] was 12 µM and the GI50 [23] was 5.88 µM. It also gave a TGI [23] of 11.5 µM, a GI50 [24] of 6.02 µM and a TGI [24] of 11.4 µM. The GI50 [25] was 8.24 µM, the TGI [25] was 21.8 µM and the GI50 [26] was 6.28 µM. For the same compound, the TGI [26] was 12.2 µM, the GI50 [27] was 5.68 µM and the TGI [27] was 11.3 µM. It also gave a GI50 [28] of 5.09 µM, a TGI [28] of 12.3 µM and a GI50 [29] of 5.18 µM. The TGI [29] was 12.6 µM, the GI50 [30] was 6.19 µM and the TGI [30] was 11.6 µM. It also gave a GI50 [31] of 4.21 µM, a TGI [31] of 11.7 µM and a GI50 [32] of 6.41 µM. The TGI [32] was 11.7 µM, the GI50 [33] was 5.36 µM and the TGI [33] was 10.9 µM. For the same compound, the GI50 [34] was 6.85 µM, the TGI [34] was 12.9 µM and the GI50 [35] was 5.82 µM. The TGI [35] was 11.7 µM, the GI50 [36] was 5.21 µM and the TGI [36] was 10.4 µM. For the same compound, the GI50 [37] was 6.67 µM, the TGI [37] was 13.3 µM and the GI50 [38] was 7.07 µM. For the same compound, the TGI [38] was 16.1 µM, the GI50 [39] was 5.92 µM and the TGI [39] was 11.1 µM. The GI50 [40] was 5.69 µM, the TGI [40] was 10.8 µM and the GI50 [41] was 5.75 µM. For the same compound, the TGI [41] was 10.9 µM, the GI50 [42] was 5.14 µM and the TGI [42] was 12.2 µM. It also gave a GI50 [43] of 5.67 µM, a TGI [43] of 10.8 µM and a GI50 [44] of 5.69 µM. The TGI [44] was 10.8 µM, the GI50 [45] was 6.31 µM and the TGI [45] was 12.6 µM. The GI50 [46] was 6.63 µM, the TGI [46] was 15.9 µM and the GI50 [47] was 6.1 µM. For the same compound, the TGI [47] was 11.8 µM, the GI50 [48] was 5.83 µM and the TGI [48] was 11.2 µM. It also gave a GI50 [49] of 7.46 µM, a TGI [49] of 18.9 µM and a GI50 [50] of 6.08 µM. It also gave a TGI [50] of 11.9 µM, a GI50 [51] of 5.13 µM and a TGI [51] of 10.1 µM. The GI50 [52] was 3.99 µM, the TGI [52] was 8.53 µM and the GI50 [53] was 5.87 µM. For the same compound, the TGI [53] was 11.4 µM, the GI50 [54] was 5.92 µM and the TGI [54] was 14 µM. The GI50 [55] was 5.31 µM, the TGI [55] was 11 µM and the GI50 [56] was 6.14 µM. For the same compound, the TGI [56] was 11.5 µM, the GI50 [57] was 6.21 µM and the TGI [57] was 12.9 µM. For the same compound, the GI50 [58] was 3.99 µM and the TGI [58] was 13.4 µM.

For `COc1cncc(-c2ccc3ncnc(N4CCc5ccc(Cl)cc54)c3c2)c1`, the GI50 [1] was 2.97 µM, the TGI [1] was over 100 µM and the GI50 [2] was 7.6 µM. The TGI [2] was 37.4 µM, the GI50 [3] was 2.41 µM and the TGI [3] was 18.4 µM. The GI50 [59] was 2.16 µM, the TGI [59] was 27.9 µM and the GI50 [4] was 1.85 µM. The TGI [4] was 18.4 µM, the GI50 [5] was 3.02 µM and the TGI [5] was 26.9 µM. The GI50 [6] was 7.02 µM, the TGI [6] was 21.9 µM and the GI50 [7] was 2.97 µM. It also gave a TGI [7] of 77.7 µM, a GI50 [8] of 6.17 µM and a TGI [8] of 26.9 µM. The GI50 [9] was 2.62 µM, the TGI [9] was 12.4 µM and the GI50 [10] was 1.28 µM. For the same compound, the TGI [10] was 4.86 µM, the GI50 [11] was 3.43 µM and the TGI [11] was 33.1 µM. It also gave a GI50 [12] of 3.28 µM, a TGI [12] of 20.5 µM and a GI50 [13] of 3.53 µM. The TGI [13] was 29.6 µM, the GI50 [14] was 4.4 µM and the TGI [14] was 23 µM. For the same compound, the GI50 [15] was 4.05 µM, the TGI [15] was 22.3 µM and the GI50 [16] was 5.33 µM. For the same compound, the TGI [16] was 29.6 µM, the GI50 [17] was 0.885 µM and the TGI [17] was 13.8 µM. The GI50 [18] was 0.371 µM, the TGI [18] was 4.02 µM and the GI50 [19] was 1.74 µM. For the same compound, the TGI [19] was 11.3 µM, the GI50 [20] was 3.04 µM and the TGI [20] was 19.9 µM. It also gave a GI50 [21] of 0.231 µM, a TGI [21] of 2.26 µM and a GI50 [22] of 3.11 µM. The TGI [22] was 20.5 µM, the GI50 [23] was 2.19 µM and the TGI [23] was 24.9 µM. For the same compound, the GI50 [24] was 1.78 µM, the TGI [24] was 8.41 µM and the GI50 [25] was 4.56 µM. For the same compound, the TGI [25] was over 100 µM, the GI50 [26] was 3.98 µM and the TGI [26] was 55.9 µM. For the same compound, the GI50 [27] was 1.27 µM, the TGI [27] was 9.58 µM and the GI50 [28] was 2.47 µM. It also gave a TGI [28] of over 100 µM, a GI50 [29] of 3.03 µM and a TGI [29] of 25.4 µM. For the same compound, the GI50 [30] was 4.24 µM, the TGI [30] was 24 µM and the GI50 [31] was 0.623 µM. The TGI [31] was 5.25 µM, the GI50 [32] was 3.41 µM and the TGI [32] was 14.4 µM. For the same compound, the GI50 [33] was 2.24 µM, the TGI [33] was 17.8 µM and the GI50 [34] was 1.98 µM. It also gave a TGI [34] of 27 µM, a GI50 [35] of 2.17 µM and a TGI [35] of 12.1 µM. For the same compound, the GI50 [37] was 2.81 µM, the TGI [37] was 16.4 µM and the GI50 [38] was 3.13 µM. The TGI [38] was 54.1 µM, the GI50 [39] was 3.56 µM and the TGI [39] was 27 µM. It also gave a GI50 [40] of 1.04 µM, a TGI [40] of 15.5 µM and a GI50 [41] of 9.11 µM. For the same compound, the TGI [41] was 24.2 µM, the GI50 [42] was 1.23 µM and the TGI [42] was 10 µM. The GI50 [43] was 3.13 µM, the TGI [43] was 23.7 µM and the GI50 [44] was 2.42 µM. It also gave a TGI [44] of 21.3 µM, a GI50 [45] of 2.58 µM and a TGI [45] of 16.4 µM. For the same compound, the GI50 [46] was 1.48 µM, the TGI [46] was 6.5 µM and the GI50 [47] was 9.01 µM. It also gave a TGI [47] of 28.5 µM, a GI50 [48] of 1.61 µM and a TGI [48] of 15.8 µM. For the same compound, the TGI [49] was 6.2 µM, the GI50 [50] was 3.65 µM and the TGI [50] was 20.3 µM. The GI50 [51] was 2.49 µM, the TGI [51] was 16.3 µM and the GI50 [52] was 0.718 µM. The TGI [52] was 11.8 µM, the GI50 [53] was 3.48 µM and the TGI [53] was 19.8 µM. The GI50 [54] was 1.22 µM, the TGI [54] was 11.5 µM and the GI50 [55] was 2.04 µM. For the same compound, the TGI [55] was 18.3 µM, the GI50 [56] was 4.33 µM and the TGI [56] was 19.7 µM. For the same compound, the GI50 [57] was 2.69 µM, the TGI [57] was 22.9 µM and the GI50 [58] was 1.96 µM. For the same compound, the TGI [58] was 6.96 µM.

Reference: PubChem BioAssay (NCI)
